From ChEMBL document CHEMBL1137892, “Pyrimidine methyl anilines: selective potentiators for the metabotropic glutamate 2 receptor” (Bioorg Med Chem Lett, 2004) come the findings set out here.

What all share (assay type): functional
The target in experiment [1] is Metabotropic glutamate receptor 2 (Homo sapiens) (UniProt Q14416). The experiment in a line: Level of potentiation of Metabotropic glutamate receptor 2 was determined by measuring the percentage activation of [35S]GTP-gamma-S, in the presence of 10 uM glutamate. On the technique in general: GTPγS is a poorly hydrolysed GTP analogue; its binding reports G protein activation.

Experiment [2] shares this target. The experiment in a line: Binding potency against Metabotropic glutamate receptor 2 was determined by measuring the concentration required to activate 50% of [35S]GTP-gamma-S, in presence of 10 uM glutamate.
Experiment [3] concerns the target Metabotropic glutamate receptor 3 (Homo sapiens) (UniProt Q14832). The experiment in a line: Binding potency against Metabotropic glutamate receptor 3 was determined by measuring the concentration required to activate 50% of [35S]GTP-gamma-S, in presence of glutamate; inactive.

Metabotropic glutamate receptor 2 (Homo sapiens), sequence (Q14416 19-872 limits assumed): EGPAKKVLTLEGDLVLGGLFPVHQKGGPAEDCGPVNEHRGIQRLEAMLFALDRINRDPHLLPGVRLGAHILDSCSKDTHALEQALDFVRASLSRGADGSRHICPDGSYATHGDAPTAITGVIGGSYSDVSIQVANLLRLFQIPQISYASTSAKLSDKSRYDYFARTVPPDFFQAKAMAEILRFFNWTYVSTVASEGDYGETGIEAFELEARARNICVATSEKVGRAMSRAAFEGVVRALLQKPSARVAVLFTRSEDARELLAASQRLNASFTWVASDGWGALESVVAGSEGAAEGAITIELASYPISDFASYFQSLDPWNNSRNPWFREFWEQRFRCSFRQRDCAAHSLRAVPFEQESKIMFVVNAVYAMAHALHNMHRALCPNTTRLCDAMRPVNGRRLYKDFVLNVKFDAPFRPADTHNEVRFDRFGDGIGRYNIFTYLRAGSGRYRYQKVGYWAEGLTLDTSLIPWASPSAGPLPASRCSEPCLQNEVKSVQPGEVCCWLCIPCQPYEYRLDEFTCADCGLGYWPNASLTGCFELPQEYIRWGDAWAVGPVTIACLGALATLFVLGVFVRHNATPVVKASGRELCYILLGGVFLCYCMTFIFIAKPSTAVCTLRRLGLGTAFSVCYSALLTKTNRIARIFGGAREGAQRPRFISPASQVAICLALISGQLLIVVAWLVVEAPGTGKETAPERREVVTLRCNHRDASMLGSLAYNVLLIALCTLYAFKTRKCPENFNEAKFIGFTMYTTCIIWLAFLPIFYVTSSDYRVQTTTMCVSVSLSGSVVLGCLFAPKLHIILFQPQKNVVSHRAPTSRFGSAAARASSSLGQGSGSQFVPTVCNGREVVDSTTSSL
Metabotropic glutamate receptor 3 (Homo sapiens), sequence (Q14832 23-879 limits assumed): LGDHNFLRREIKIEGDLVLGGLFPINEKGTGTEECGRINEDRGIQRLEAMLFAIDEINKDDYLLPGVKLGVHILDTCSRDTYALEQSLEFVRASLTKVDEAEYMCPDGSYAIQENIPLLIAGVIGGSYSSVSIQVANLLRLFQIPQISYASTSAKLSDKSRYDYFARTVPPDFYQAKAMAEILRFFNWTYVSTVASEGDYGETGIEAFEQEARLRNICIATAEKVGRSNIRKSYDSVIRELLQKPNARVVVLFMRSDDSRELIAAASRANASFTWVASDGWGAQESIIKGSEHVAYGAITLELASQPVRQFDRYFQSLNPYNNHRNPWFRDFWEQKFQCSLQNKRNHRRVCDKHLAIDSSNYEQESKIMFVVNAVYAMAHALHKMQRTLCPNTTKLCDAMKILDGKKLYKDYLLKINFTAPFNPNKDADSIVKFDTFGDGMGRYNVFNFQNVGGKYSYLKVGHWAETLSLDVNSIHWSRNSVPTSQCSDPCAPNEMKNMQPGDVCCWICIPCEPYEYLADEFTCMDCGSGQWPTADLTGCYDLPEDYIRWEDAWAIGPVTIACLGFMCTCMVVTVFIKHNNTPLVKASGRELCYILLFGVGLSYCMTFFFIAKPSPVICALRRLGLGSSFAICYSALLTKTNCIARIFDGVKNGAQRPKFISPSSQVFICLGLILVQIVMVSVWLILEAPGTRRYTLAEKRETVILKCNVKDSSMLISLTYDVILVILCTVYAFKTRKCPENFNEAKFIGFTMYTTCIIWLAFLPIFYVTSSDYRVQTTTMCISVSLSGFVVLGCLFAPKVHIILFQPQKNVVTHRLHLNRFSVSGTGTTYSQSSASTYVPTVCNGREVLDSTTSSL

With `FC(F)(F)Oc1cccc(NCc2cncnc2)c1`, in experiment [1], the Potentiation worked out at 26%. Also, the ED50 in experiment [2] turned out to be 19000 nM.

Take `CCCC(C)Oc1cccc(NCc2cnc3ccccc3c2)c1` (stereo unspecified): the Potentiation in experiment [1] came out at 41%. In addition, the ED50 in experiment [2] came out at 4300 nM.

For `O=S(=O)(CC(F)(F)F)N(Cc1cncnc1)c1cccc(Oc2ccccc2)c1`, the Potentiation in experiment [1] was 52%. The ED50 in experiment [2] stood at 660 nM.

Turning to `O=C(OCc1cccc(N(Cc2cncnc2)S(=O)(=O)CC(F)(F)F)c1)c1ccccc1`, the Potentiation in experiment [1] was 39%. For the same compound, the ED50 in experiment [2] came out at 810 nM.

For `CCCC(C)Oc1cccc(N(Cc2cncnc2)S(=O)(=O)CC(F)(F)F)c1` (stereo unspecified), the Concentration in experiment [3] came out at 10 µM. Also, the Potentiation in experiment [1] was 31%. Moreover, the ED50 in experiment [2] came to 350 nM.

Take `O=S(=O)(CC(F)(F)F)N(Cc1cncnc1)c1cccc(Oc2ccccc2F)c1`: in experiment [1], the Potentiation is 46%. Moreover, in experiment [2], the ED50 worked out at 860 nM.

For `O=S(=O)(CC(F)(F)F)N(Cc1cncnc1)c1cccc(OC2CCCC2)c1`, in experiment [1], the Potentiation amounted to 60%. Also, in experiment [2], the ED50 turned out to be 840 nM.

Consider `O=S(=O)(CC(F)(F)F)N(Cc1cncnc1)c1cccc(Oc2ccccc2Br)c1`, for which the Potentiation in experiment [1] came to 40%. The ED50 in experiment [2] turned out to be 1100 nM.

In the case of `O=S(=O)(CC(F)(F)F)N(Cc1cncnc1)c1cccc(Oc2ccccc2C(F)(F)F)c1`, the Potentiation in experiment [1] came out at 73%. For the same compound, in experiment [2], the ED50 is 970 nM.

As to `FC(F)(F)c1ccccc1Cc1cccc(NCc2cnc3ccccc3c2)c1`, the Potentiation in experiment [1] was determined as 18%. Besides, in experiment [2], the ED50 amounted to 1000 nM.

In the case of `COc1ccccc1Oc1ccc(N(Cc2cccnc2)S(=O)(=O)CC(F)(F)F)cc1`, the Potentiation in experiment [1] was found to be 52%. In experiment [2], the ED50 was determined as 1700 nM.

Turning to `Cc1ccccc1Oc1cccc(N(Cc2cncnc2)S(=O)(=O)CC(F)(F)F)c1`, the Potentiation in experiment [1] came out at 53%. The ED50 in experiment [2] worked out at 630 nM.

Turning to `O=S(=O)(CC(F)(F)F)N(Cc1cncnc1)c1cccc(Cc2ccccc2)c1`, the Potentiation in experiment [1] was determined as 43%. Besides, the ED50 in experiment [2] came to 540 nM.

`COc1ccccc1Oc1cccc(N(Cc2cncnc2)S(=O)(=O)CC(F)(F)F)c1`: the Potentiation in experiment [1] amounted to 62%. Further, in experiment [2], the ED50 was determined as 760 nM.

Regarding `FC(F)(F)Oc1cccc(NCc2cnc3ccccc3c2)c1`, in experiment [1], the Potentiation was 40%. The ED50 in experiment [2] is 5200 nM.

On to `CC(C)(C)[Si](C)(C)OCc1cccc(N(Cc2cncnc2)S(=O)(=O)CC(F)(F)F)c1`, for which the Potentiation in experiment [1] came to 48%. In addition, the ED50 in experiment [2] stood at 660 nM.

Regarding `O=S(=O)(CC(F)(F)F)N(Cc1cncnc1)c1ccc(Oc2ccccc2)cc1`, the Potentiation in experiment [1] was 37%. Besides, the ED50 in experiment [2] amounted to 560 nM.

Turning to `c1ccc(NCc2cncnc2)cc1`, in experiment [1], the Potentiation worked out at 68%. Moreover, the ED50 in experiment [2] is 9600 nM.

In the case of `c1ccc(Cc2cccc(NCc3cncnc3)c2)cc1`, in experiment [1], the Potentiation was 31%. Further, the ED50 in experiment [2] was 710 nM.

Turning to `O=S(=O)(CC(F)(F)F)N(Cc1cncnc1)c1cccc(COc2ccccc2)c1`, the Potentiation in experiment [1] turned out to be 51%. In addition, in experiment [2], the ED50 is 1200 nM.
